Four substances from US20240342071A1, “HEXAPEPTIDE,COSMETIC COMPOSITION OR PHARMACEUTICAL COMPOSITION CONTAINING SAME, AND USE OF HEXAPEPTIDE” (SHENZHEN WINKEY TECHNOLOGY CO., LTD, priority 2021, published 2024) can be followed below.

The subject of one series is HaCaT cells. In words: Cell viability assay (MTT) on HaCaT cells. The series is classed as cell-based, Human. Conditions: 72 h; for toxicity to HaCaT cells: 100 ppm, compared with the control group. The source says: Phosphate-buffered saline (PBS) (Gibco), thiazolyl blue (MTT) (Sigma), dimethyl sulfoxide (DMSO) (Sigma), a high glucose culture medium (DMEM) (Gibco), and fetal bovine serum (Gibco).
Human keratinocytes (HaCaT) were purchased from the Kunming Cell Bank of China Center for Type Culture Collection under the Chinese Academy of Sciences.
The peptide Ac-Phe-Phe-Trp-Phe-His-Val-NH2 (hereinafter referred to as the reference peptide) at a test concentration of 1 ppm, 10 ppm, 50 ppm, and 100 ppm respectively; • the peptide (5) at a test concentration of 1 ppm, 10 ppm, 50 ppm, and 100 ppm, respectively; • the peptide (11) at a test concentration of 1 ppm, 10 ppm, 50 ppm, and 100 ppm, respectively; • the peptide (17) at a test concentration of 1 ppm, 10 ppm, 50 ppm, and 100 ppm, respectively. Control group: • PBS blank control.
The frozen HaCaT cells were cultured and passaged at a ratio of 1:2 to about the 5th generation, and the cells in better growth were selected as experiment subjects.
The cells were inoculated in a 96-well plate at 2000 cells/well. After the cells adhered to the wall, samples of the drug groups and the control group were added according to the multiple dilution method, supplemented with a culture medium to 200 μL, and incubated in a 5% CO2 incubator at 37° C. for 72 h.
Then 22 μL 5 mg/ml MTT was added to each well and the incubation was continued in the 5% CO2 incubator at 37° C. for 4 h. The original solution was removed and 150 μL/well DMSO was added. After 5 min, the microplate reader was used to read the reference OD values at 490 nm and 630 nm wavelengths.
The MTT assay is a method of detecting cell survival and growth. The control group is taken as a reference value. Four dosage concentrations were set from high to low for each sample, and cell viability assays were carried out on HaCaT cells. The measured OD values are directly proportional to cell viability.

A further series concerns IL-6. In words: Anti-inflammatory cell assay: IL-6 ELISA in LPS-stimulated RAW 264.7 cells. It is filed as cell-based, Mouse. Particulars: 100 ppm, 200 ng/mL LPS, RAW 264.7, 48 h, vs LPS alone. How it is done:
(§1) Fetal bovine serum, DMEM culture medium, penicillin, streptomycin, an IL-6 ELISA kit and a TNF-α ELISA kit.
(§2) Mouse monocyte macrophages (RAW 264.7 cells).
(§3) 100 ppm of the reference peptide, 100 ppm of the peptide (5), 100 ppm of the peptide (11), and 100 ppm of the peptide (17); the peptides were dissolved with a PBS solution, respectively.
(§4) The frozen RAW 264.7 cells were cultured and passaged at a ratio of 1:2 to about the 5th generation, and the cells in better growth were selected as experiment subjects.
(§5) A cell suspension was diluted properly and inoculated on a 6-well plate at 100,000 cells/well. When the cells were about 80% confluent, an LPS-stimulated inflammation model was established. A blank control group (control), a LPS group, a dexamethasone group (DXM), and polypeptide groups were set. The blank control group was supplemented with the culture medium to 1000 μL; in the LPS group, 200 ng/mL LPS was added, and supplemented with the culture medium to 1000 μL; in the dexamethasone group, 200 ng/mL LPS and 50 ng/ml dexamethasone were added, and supplemented with the culture medium to 1000 μL; in the polypeptide groups, 200 ng/mL LPS and a polypeptide were added, and supplemented with culture medium to 1000 μL (the final test concentration of the polypeptide was 100 ppm). The above groups were further incubated in a 5% CO2 incubator at 37° C. for 48 h. The solutions were centrifuged at 3000 rpm for 15 min, in each of which a cell supernatant was collected to obtain a sample liquid. Operations were performed according to the instructions of the IL-6 and TNF-α ELISA kits.
(§6) Inflammatory factors such as TNF-α and IL-6 can cause the body's immune overresponse, leading to skin ulcers, redness and other problems. Therefore, inhibiting inflammatory factors such as TNF-α and IL-6 secreted by monocytes in the skin can achieve anti-inflammatory and repairing effects. An inflammation model was established by stimulating RAW 264.7 cells with 200 ng/mL LPS to investigate the anti-inflammatory and repairing effects of the peptides of the present invention.
On the technique in general: In an ELISA, binding on a coated surface is turned into a signal by an enzyme label.

A further series relates to TNF-α. The experiment in a line: Anti-inflammatory cell assay: TNF-α ELISA in LPS-stimulated RAW 264.7 cells. The series is classed as cell-based, Mouse. Particulars: 200 ng/mL LPS; for effect on TNF-α expression compared with the positive drug dexamethasone: 100 ppm peptide vs 50 ng/ml dexamethasone, RAW 264.7; for TNF-α expression: 100 ppm, RAW 264.7, 48 h, vs LPS alone. The procedure:
as §1, §2, §3, §4, §5, §6

As to “Ac-FFWFHG-NH2 [peptide (17), Ac-Phe-Phe-Trp-Phe-His-Gly-NH2]”, the “toxicity to HaCaT cells” value in the series with HaCaT cells was “no toxicity”. Also, the “expression of IL-6” value in the series with IL-6 was “significantly down-regulated”. Further, in the series on TNF-α, the “effect on TNF-α expression compared with the positive drug dexamethasone” value is on record as “equivalent to that of the positive drug dexamethasone, or having even more excellent effects than dexamethasone” and the TNF-α expression entry is recorded as “significantly down-regulated”.
Take “Ac-FFWFHL-NH2 [peptide (11), Ac-Phe-Phe-Trp-Phe-His-Leu-NH2]”: the “toxicity to HaCaT cells” value in the series on HaCaT cells is recorded as “no toxicity”. For the same substance, the “expression of IL-6” value in the series with IL-6 is “significantly down-regulated”. In the series on TNF-α, the “effect on TNF-α expression compared with the positive drug dexamethasone” value was “equivalent to that of the positive drug dexamethasone, or having even more excellent effects than dexamethasone” and the TNF-α expression result is recorded as “significantly down-regulated”.
Regarding “Ac-FFWFHV-NH2 [reference peptide, Ac-Phe-Phe-Trp-Phe-His-Val-NH2, reference compound]”, the “toxicity to HaCaT cells” value in the series on HaCaT cells is reported as “no toxicity”. In addition, the “proliferation effects on cells” value with HaCaT cells (HaCaT, 50 ppm) is “significant proliferation effects”. Besides, the “expression of IL-6” value in the series with IL-6 is “significantly down-regulated”. In the series with TNF-α, the “effect on TNF-α expression compared with the positive drug dexamethasone” value is “equivalent to that of the positive drug dexamethasone, or having even more excellent effects than dexamethasone” and the TNF-α expression result is reported as “significantly down-regulated”.
“Ac-FFWFKV-NH2 [peptide (5), Ac-Phe-Phe-Trp-Phe-Lys-Val-NH2]”: in the series with HaCaT cells, the “toxicity to HaCaT cells” value is “no toxicity”.
